PubChem BioAssay (NCI)
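Method: 48-hour compound exposure of cells in 96-well plates, five concentrations, linear interpolation of endpoints. GI50 = concentration required for 50% inhibition of growth. TGI: total growth inhibition.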

What was measured:
Experiment in all cases: NCI tumour cell line growth inhibition, 48 h
[1] = system: DLD-1 colon
[2] = system: DMS 273 small cell lung
[3] = system: KM20L2 colon
[4] = system: M19-MEL melanoma
[5] = system: SNB-78 CNS
[6] = system: DU-145 prostate
[7] = system: MCF7 breast
[8] = system: MDA-MB-231 breast
[9] = system: MDA-MB-435
[10] = system: T-47D breast

Row | SMILES | TGI [1] [µM] | TGI [2] [µM] | TGI [3] [µM] | TGI [4] [µM] | TGI [5] [µM] | also measured
1 | COc1ccc(C(=O)NCCN(C)C)c2nc3ccccc3nc12 | > 65.4 | > 100 | 26.5 | 9.9 | 38.4 | 
2 | Cc1c(C(=O)O)oc2ccc([N+](=O)[O-])cc12 | > 100 | > 100 | > 100 | > 100 | > 100 | 
3 | CSC1=Nc2ccccc2N=C(c2ccc(Cl)cc2)C1 | > 100 |  | > 100 | > 100 | > 100 | 
4 | CSc1nnc(COc2ccc(Cl)cc2)o1 | > 100 | > 100 | > 100 | > 100 | > 100 | 
5 | C[N+](C)(C)CC1CCCCC1O (configuration not stated) | > 100 | > 100 | > 100 | > 100 | > 100 | 
6 | CC(=O)N1CCC2(c3ccccc3N(C(C)=O)C2c2ccc(O)cc2)C1C(=O)O (configuration not stated) | > 100 | > 100 | > 100 | > 100 | > 100 | 
7 | CCNC(=O)COc1ccc(Cl)cc1Cl | > 100 | > 100 | > 100 | > 100 | > 100 | 
8 | CCCCN(CC)CC(C(C)=O)c1c(O)c2ccccc2oc1=O (configuration not stated) | > 100 | > 100 | > 100 | > 100 | > 100 | 
9 | O=[N+]([O-])c1ccc(-c2ccc(-c3csc(Nc4ccccc4)n3)o2)cc1 | 65.9 | 49.4 | 44.9 | > 81.6 | 38.4 | 
10 | COc1ccc(/C(=N\NC(=S)NN)C(c2ccc(OC)cc2)C2C(=O)Oc3ccccc32)cc1 (configuration not stated) | > 100 | > 100 | > 100 | > 100 | > 100 | GI50 [1]: > 100 µM; GI50 [2]: > 100 µM; GI50 [3]: > 100 µM; GI50 [4]: > 100 µM; GI50 [5]: > 100 µM
11 | C/C(=N/NC(=O)C[N+](C)(C)C)C(CN(C)C)C(=O)Nc1ccccc1 (configuration not stated) | > 100 | > 100 | > 100 | > 100 |  | 
12 | Cn1c2c(c3ccccc31)CCN(CCN1CCN(c3cccc(Cl)c3)CC1)C2=O | > 100 | > 100 | > 100 | > 100 |  | 
13 | COc1ccc2[nH]c3c(c2c1)[C@H](C)C[C@@H]1C(=O)N(c2ccccc2)C(=O)[C@H]31 | > 100 | > 100 | > 100 | > 100 |  | 
14 | CCOC(=O)c1cc2c3c(c(O)c(OC)c2s1)N(C(=O)c1cc2c4c(c(O)c(OC)c2s1)N(C(C)=O)CC4)CC3 | > 100 | > 100 | > 100 | > 100 | > 100 | 
15 | O=[N+]([O-])c1ccc(Sc2c3ccccc3nc3cc(Cl)ccc23)cc1 | > 100 | > 1 | > 100 | > 100 |  | GI50 [1]: > 100 µM; GI50 [3]: > 100 µM; GI50 [4]: > 100 µM
16 | O=c1oc2ccccc2[n+]([O-])c1-c1ccccc1 | > 100 | > 100 | > 100 | > 100 | > 100 | 

Row | SMILES | TGI [1] [µM] | TGI [2] [µM] | TGI [3] [µM] | TGI [4] [µM] | TGI [5] [µM] | also measured
17 | CC(=O)OCC1OC(N2C(=O)C(=O)c3ccccc32)C(OC(C)=O)C(OC(C)=O)C1OC(C)=O (configuration not stated) | > 100 | > 100 | > 100 | > 100 |  | 
18 | O=c1c2cc(Br)ccc2nc(CCl)n1-c1ccc(O)c([N+](=O)[O-])c1 | 33.4 |  | > 100 | 36.2 | 50.3 | 
19 | CCOC(=O)C1SC(=Nc2ccc(Cl)cc2)N=C1C (configuration not stated) | 28.7 |  | 33.4 | 33 | 89.3 | 
20 | Cc1cc(N(CCC#N)CCC#N)ccc1/C=C(\NC(=O)/C=C/c1ccccc1)C(=O)NN | > 100 | > 100 | > 100 | > 100 | > 100 | TGI [6]: > 100 µM; TGI [7]: > 100 µM; TGI [8]: > 100 µM; TGI [9]: > 100 µM; TGI [10]: > 100 µM
21 | C=CC(OCC)(OCC)OCC | > 100 | 37.9 | > 100 | > 100 | > 100 | 
22 | CSC(=S)N/N=C/c1nccc2ccccc12 | 22.4 | > 21.8 | > 27.6 | > 33.6 | 63.6 | 
23 | Nc1ncnc2c1ncn2CC(O)CO (configuration not stated) | > 100 | > 100 |  | > 100 | > 100 | 
24 | Cc1ccccc1C(=O)N1CCN(C(=O)c2ccccc2C)CC1 | > 100 | > 100 | > 100 | > 100 | > 100 | 
25 | Cc1c2ccccc2cc2ccc3oc([N+](=O)[O-])cc3c12 | > 100 | > 100 | > 100 | > 100 | > 100 | 
26 | CC(C)(C)C(=O)[CH-]C(=O)C(C)(C)C.CC(C)(C)C(=O)[CH-]C(=O)C(C)(C)C.CN(C)c1ccc([O-])cc1.CN(C)c1ccc([O-])cc1.[Ti+4] | > 100 | > 100 | > 100 | > 100 | > 100 | GI50 [1]: > 100 µM; GI50 [2]: > 100 µM; GI50 [3]: > 100 µM; GI50 [4]: 79.2 µM; GI50 [5]: > 100 µM
27 | CSC(=NCCc1c[nH]c2ccccc12)NC#N | > 100 | > 100 | > 100 | > 100 | > 100 | 
28 | c1ccc(N2N=C(c3ccco3)CC2c2ccco2)cc1 (configuration not stated) |  | > 100 | > 100 | > 100 | > 100 | 
29 | O=C(/C=C/c1ccccc1)c1ccc(NCc2nc3ccccc3[nH]2)cc1 | 15.6 | 16 | 9.06 | 14.7 | 20.7 | 
30 | N/N=C1\C(=O)N(CCc2ccccc2)C(=O)C1C(=O)NCCc1ccccc1 (configuration not stated) | > 100 | > 100 | > 100 | > 100 | > 100 | 
31 | CN(C)C(=S)/N=c1\ssc(=S)n1Cc1ccncc1 | 47.4 | 76.3 | > 100 | 27.8 | > 100 | 
32 | COC(=O)C1(O)CC(=O)CCC1c1ccc(OC)cc1 (configuration not stated) | > 100 | > 100 | > 100 |  | > 100 | 
